16 compounds from patent US6747027B1, “Thiol sulfonamide metalloprotease inhibitors” (Pharmacia Corporation, priority 1996, dated 2004) can be followed below.

By IC50 is commonly meant the concentration that gives 50% inhibition.

One test has as its target T1, recombinant human MMP-13 (Homo sapiens, UniProt P45452).
T1 construct: made in house
As to the kind of experiment: In vitro metalloprotease inhibition, fluorogenic peptide assay (MMP-13). Format: biochemical. The conditions noted are these: recombinant human MMP-13, APMA activated; fluorogenic MCA peptide substrate 4 uM; pH 7.5, room temperature. Here is the method: (§1) Certain of the compounds prepared in the manner described in Examples 1 to 223 were tested for activity by an in vitro assay. Following the procedures of Knight et al., FEBS Lett. 296(3):263 (1992). Briefly, 4-aminophenylmercuric acetate (APMA) or trypsin activated MMPs were incubated with various concentrations of the inhibitor compound at room temperature for 5 minutes (0.02% 2-mercapto-ethanol added to buffer for thiol compounds with 5 minutes or overnight incubation). More specifically, recombinant human MMP-13 and MMP-1 enzymes were prepared in laboratories of the inventors' employer. MMP-13 was expressed in baculovirus as a proenzyme, and purified first over a heparin agarose column and then over a chelating zinc chloride column. The proenzyme was activated by APMA for use in the assay. MMP-1 expressed in transfected HT-1080 was provided by Dr. Howard Welgus of Washington University, St. Louis, Mo. The enzyme was also activated using APMA and was then purified over a hydroxamic acid column.
(§2) The enzyme substrate is a methoxycoumarin-containing polypeptide having the following sequence:
(§3) MCA-ProLeuGlyLeuDpaAlaArgNH^2, wherein MCA is methoxycoumarin and Dpa is 3-(2,4-dinitrophenyl)-L-2,3-diaminopropionyl alanine. This substrate is commercially available from Baychem as product M-1895.
(§4) The buffer used for assays contained 100 mM Tris-HCl, 100 mM NaCl, 10 mM CaCl2 and 0.05 percent polyethyleneglycol(23) lauryl ether at a pH value of 7.5. Assays were carried out at room temperature, and dimethyl sulfoxide (DMSO) at a final concentration of 1 percent was used to dissolve inhibitor compound.
(§5) The assayed inhibitor compound in DMSO/buffer solution was compared to an equal amount of DMSO/buffer with no inhibitor as control using microfluor™ white plates (Dynatech). The inhibitor or control solution was maintained in the plate for 10 minutes and the substrate was added to provide a final concentration of 4 uM.
(§6) In the absence of inhibitor activity, a fluorogenic peptide is cleaved at the gly-leu peptide bond, separating the highly fluorogenic peptide from a 2.4-dinitrophenyl quencher, resulting in an increase of fluorescence intensity (excitation at 328 nm/emmision at 415 nm). Inhibition was measured as a reduction in fluorescent intensity as a function of inhibitor concentration, using a Perkin Elmer L550 plate reader. The IC50 values were calculated from those values. The results are set forth in the Inhibition Table below, reported in terms of IC50 to three significant figures.

In another test the target is T2, recombinant human MMP-1 (Homo sapiens, UniProt P03956).
T2 construct: made in house; host or cells: transfected HT-1080 cells (provided by Dr. Howard Welgus, Washington University)
T2 sequence (P03956 100-469): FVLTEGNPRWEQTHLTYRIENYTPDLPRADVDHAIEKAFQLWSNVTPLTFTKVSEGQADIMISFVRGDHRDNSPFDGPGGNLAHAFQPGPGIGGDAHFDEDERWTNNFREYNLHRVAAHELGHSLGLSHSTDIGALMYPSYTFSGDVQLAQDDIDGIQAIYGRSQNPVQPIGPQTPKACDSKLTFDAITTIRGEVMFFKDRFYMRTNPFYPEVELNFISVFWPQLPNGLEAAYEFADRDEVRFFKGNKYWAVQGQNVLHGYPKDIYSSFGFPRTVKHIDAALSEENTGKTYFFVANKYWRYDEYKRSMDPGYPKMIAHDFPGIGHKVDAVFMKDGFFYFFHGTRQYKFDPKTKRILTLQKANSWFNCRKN
As to the kind of experiment: In vitro metalloprotease inhibition, fluorogenic peptide assay (MMP-1). It is filed as biochemical. The conditions noted are these: recombinant human MMP-1, APMA activated; fluorogenic MCA peptide substrate 4 uM; pH 7.5, room temperature. Here is the method: as §1, §2, §3, §4, §5, §6

Some results are limits rather than exact numbers.

For the compound `COc1ccc(S(=O)(=O)N(CC(C)C)[C@H](C)CS)cc1` [Example 14C, N-(2-Mercapto-1R-methylethyl)-N-(2-methylpropyl)-4-methoxybenzenesulfonamide], the figures for the IC50 at recombinant human MMP-13 and on recombinant human MMP-1 were 46 nM and 1060 nM, respectively.

As for `CCCCOc1ccc(S(=O)(=O)N[C@H](C)CS)cc1` [Example 15, N-(2-Mercapto-1R-methylethyl)-4-(n-butoxy)benzenesulfonamide], the results for the half-inhibitory concentration (IC50) on recombinant human MMP-13 and on recombinant human MMP-1 were 75 nM and more than 10000 nM, respectively.

In the case of `COc1ccc(S(=O)(=O)N[C@H](C)CS)cc1` [Example 16B, N-(2-Mercapto-1R-methylethyl)-4-methoxybenzenesulfonamide], the results for the concentration for half-maximal inhibition (IC50) at recombinant human MMP-13 and at recombinant human MMP-1 were 245 nM and 7000 nM, respectively.

Regarding `CCCCOc1ccc(S(=O)(=O)N(Cc2ccccc2)[C@H](C)CS)cc1` [Example 17C], the results for the IC50 at recombinant human MMP-13 and on recombinant human MMP-1 were 260 nM and more than 10000 nM, respectively.

`CCCCOc1ccc(S(=O)(=O)N(C)[C@H](C)CSSC[C@@H](C)N(C)S(=O)(=O)c2ccc(OCCCC)cc2)cc1` [Example 18]: the figures for the IC50 at recombinant human MMP-13 and at recombinant human MMP-1 were 390 nM and more than 10000 nM, respectively.

In the case of `C[C@H](CS)N(C)S(=O)(=O)c1ccc2c(c1)OCO2` [Example 20C, N-(2-Mercapto-1R-methylethyl)-N-methyl-5-(1,3-benzodioxol-5-yl)sulfonamide], the IC50 on recombinant human MMP-13 came out at 110 nM; at recombinant human MMP-1, 3000 nM.

Turning to `C[C@H](CS)N(Cc1ccccc1)S(=O)(=O)c1ccc2c(c1)OCO2` [Example 21C, N-(2-Mercapto-1R-methylethyl)-N-(phenylmethyl)-5-(1,3-benzodioxol-5-yl)sulfonamide], the IC50 is 200 nM at recombinant human MMP-13 and 7000 nM on recombinant human MMP-1.

On to `CCCCOc1ccc(S(=O)(=O)N(C)[C@H](C)CS)cc1` [Example 22C, N-(2-mercapto-1R-methylethyl)-N-methyl-4-(n-butoxybenzene)sulfonamide], for which the IC50 on recombinant human MMP-13 stood at 13 nM; at recombinant human MMP-1, 3400 nM.

As to `COc1ccc(S(=O)(=O)N2CCC(S)C2)cc1` (centres unmarked) [Example 26, 1-[(4-Methoxyphenyl)sulfonyl]-3-mercaptopyrrolidine], the IC50 on recombinant human MMP-13 was 250 nM; on recombinant human MMP-1, more than 10000 nM.

Consider `COc1ccc(S(=O)(=O)N2CCCC2CS)cc1` (centres unmarked) [Example 28, 1-[(4-Methoxyphenyl)sulfonyl]pyrrolidine-2-methanethiol], for which the IC50 on recombinant human MMP-13 is 800 nM; on recombinant human MMP-1, more than 10000 nM.

With `COc1ccc(S(=O)(=O)N(Cc2ccccc2)[C@@H](CS)C(C)C)cc1` [Example 31D, N-[(1R-Mercaptomethyl)-2-methylpropyl]-4-methoxy-N-(phenylmethyl)benzenesulfonamide], the IC50 on recombinant human MMP-13 was 600 nM; on recombinant human MMP-1, 2500 nM.

In the case of `COc1ccc(S(=O)(=O)N(Cc2ccccc2)C(CSC(C)=O)C(C)C)cc1` (centres unmarked) [Example 33C], the IC50 on recombinant human MMP-13 is 345 nM; on recombinant human MMP-1, more than 10000 nM.

Regarding `COc1ccc(S(=O)(=O)N(Cc2ccccc2)[C@H](CS)C(C)C)cc1` [Example 33D, N-[(1S-Mercaptomethyl)-2-methylpropyl]-4-methoxy-N-(phenylmethyl)benzenesulfonamide], the IC50 at recombinant human MMP-13 and on recombinant human MMP-1 was more than 10000 nM throughout.

As to `CCCOc1ccc(S(=O)(=O)N(C)[C@H](C)CS)cc1` [Example 37C, N-(2-Mercapto-1R-methylethyl)-N-methyl-4-(n-propyloxy)benzenesulfonamide], the IC50 on recombinant human MMP-13 came out at 5 nM; on recombinant human MMP-1, 1500 nM.

Turning to `CCOc1ccc(S(=O)(=O)N(C)[C@H](C)CS)cc1` [Example 38C, N-(2-Mercapto-1R-methylethyl)-N-methyl-4-ethoxybenzenesulfonamide], the IC50 at recombinant human MMP-13 is 31 nM; at recombinant human MMP-1 it was 2500 nM.

On to `CCCCCOc1ccc(S(=O)(=O)N(C)[C@H](C)CS)cc1` [Example 39C, N-(2-Mercapto-1R-methylethyl)-N-methyl-4-(n-pentyloxy)benzenesulfonamide], for which the IC50 at recombinant human MMP-13 was 21.5 nM; on recombinant human MMP-1, more than 10000 nM.
